The source of these data is patent US20080058330A1, “Compounds and Combinations Thereof for Inhibiting Beta-Amyloid Production and Methods of Use Thereof” (Roskamp Research LLC, priority 2006, published 2008).

The test system of data set [1] is 7W WT APP751 CHO cells. The data set is described as follows: Screening of dihydropyridine compounds of Table 2, Aβ1-40 and Aβ1-42 ELISA (Example 5). The class given is cell-based, Chinese hamster. To be noted: for concentration of Aβ1-40 or Aβ1-42 compared to control: 3, 10, 30 and 100 μM, 24 hours (FIGS. 22A, 22B, 23A, 23B); for concentration of Aβ1-40 compared to control: 3 and 10 μM, 24 hours (FIG. 24). The procedure:
(§1) Chinese hamster ovary (CHO) cells, stably transfected with human APP751 (7W WT APP751 CHO cells) were used. See, e.g., Koo and Squazzo, J. Biol. Chem., Vol. 269, Issue 26, 17386-17389, July, 1994. The cells were maintained in DMEM medium supplemented with 10% fetal bovine serum and IX mixture of penicillin/streptomycin/fungizone/glutamine mixture (Cambrex, Md.) geneticin as selecting agent in 75 cm^2 cell culture flasks.
(§2) The 7W WT APP751 CHO cells were plated in 24-well cell culture plates in quadruplicate, containing 1 ml of culture medium, and treated with various calcium channel blocker compounds for 4 hours, 24 hours or 48 hours at 37° C. and 5% CO2. All test compounds were diluted in dimethyl sulfoxide (DMSO) before being added to the cultured confluent 7W WT APP751 CHO cells. The culture medium was collected and diluted 5-fold for the 4 hours assay and 50-fold for the 24 hour assay before being assayed by ELISAs for Aβ1-40 and Aβ1-42, respectively. Concentrations of Aβ1-40 and Aβ1-42, expressed in pg/ml, were determined using commercially available ELISAs (Biosource, Calif.) in a colorimetric assay using labeled antibodies detected spectrophotometrically.
The screening of dihydropyridine compounds was conducted according to the procedure described in Example 1. Each compound was added to confluent cells to a final concentration of 3, 10, 30 or 100 μM and tested. Each of these compounds was added to confluent cells to a final concentration of 3 μM (noted as “C” in FIG. 24) or 10 μM (noted as “B” in FIG. 24).
(An ELISA detects its analyte on a solid surface through an enzyme-linked reagent.)

The subject of data set [2] is 7W WT APP751 CHO cells. The data set is described as follows: Measurement of Aβ1-40 and Aβ1-42 by ELISA after treatment with calcium channel blockers (Example 1). The class given is cell-based, Chinese hamster. How it is done:
as §1
as §2, with “All test compounds were diluted in dimethyl sulfoxide (DMSO) before being added to the cultured confluent 7W WT APP751 CHO cells.” left out

Data set [3] concerns Tg APPsw mice. To be noted: Tg APPsw mice given the NSAID; correlating with decreased microglial activation; cited from earlier work.
Setting [4] is: 30 μM, cells plated at low density, 24 hours (FIG. 1C).
Setting [5] is: 30 μM, cells plated at low density, 48 hours (FIG. 1D).

For the compound `COCCOC(=O)C1=C(C)NC(C)=C(C(=O)OCCOC)C1c1ccccc1Cl` [Example 2-19], the “concentration of Aβ1-40 or Aβ1-42 compared to control” value in data set [1] is “decreased”.

With `CCOC(=O)C1=C(C)NC(C)=C(C(=O)OCC)C1c1ccccc1Br` [Example 2-23, Diethyl 4-(2-bromophenyl)-1,4-dihydro-2,6-dimethylpyridine-3,5-dicarboxylate], the “concentration of Aβ1-40 or Aβ1-42 compared to control” value in data set [1] is reported as “decreased”.

By melting point is commonly meant the temperature, or range, at which the solid turns liquid. Compound `CCOC(=O)C1=C(C)NC(C)=C(C(=O)OCC)C1c1ccccc1F` [Example 2-27, Diethyl 4-(2-fluorophenyl)-1,4-dihydro-2,6-dimethylpyridine-3,5-dicarboxylate] gave a melting point of 151 to 152.5 °C. Besides, the “concentration of Aβ1-40 or Aβ1-42 compared to control” value in data set [1] is reported as “decreased”.

In the case of `CC1=C(C(=O)OC(C)(C)C)C(c2ccccc2F)C(C(=O)OC(C)(C)C)=C(C)N1` [Example 2-28, Di-tert-butyl 4-(2-fluorophenyl)-1,4-dihydro-2,6-dimethylpyridine-3,5-dicarboxylate], in data set [1], the “concentration of Aβ1-40 or Aβ1-42 compared to control” value is recorded as “decreased”.

For the compound `CCOC(=O)C1=C(C)NC(C)=C(C(=O)OCC)C1c1ccccc1[N+](=O)[O-]` [Example 2-29, Diethyl 1,4-dihydro-2,6-dimethyl-4-(2-nitrophenyl)pyridine-3,5-dicarboxylate], in data set [1], the “concentration of Aβ1-40 or Aβ1-42 compared to control” value is recorded as “decreased”.

With `CC1=C(C(=O)OC(C)(C)C)C(c2ccccc2Br)C(C(=O)OC(C)(C)C)=C(C)N1` [Example 2-32, Di-tert-butyl 4-(2-bromophenyl)-1,4-dihydro-2,6-dimethylpyridine-3,5-dicarboxylate], in data set [1], the “concentration of Aβ1-40 or Aβ1-42 compared to control” value is reported as “decreased”.

Consider `CC1=C(C(=O)OC(C)(C)C)C(c2ccccc2[N+](=O)[O-])C(C(=O)OC(C)(C)C)=C(C)N1` [Example 2-33, Di-tert-butyl 1,4-dihydro-2,6-dimethyl-4-(2-nitrophenyl)pyridine-3,5-dicarboxylate], for which the “concentration of Aβ1-40 or Aβ1-42 compared to control” value in data set [1] is “decreased”.

Take `CCOC(=O)C1=C(C)NC(C)=C(C(=O)OCC)C1c1cccc(F)c1F` [Example 3-22]: the “concentration of Aβ1-40 compared to control” value in data set [1] is recorded as “decreased”.

Regarding `CC1=C(C(=O)OC(C)(C)C)C(c2cccc(F)c2F)C(C(=O)OC(C)(C)C)=C(C)N1` [Example 3-23], in data set [1], the “concentration of Aβ1-40 compared to control” value was “decreased”.

Take `CCOC(=O)C1=C(C)NC(C)=C(C(=O)OCC)C1c1ccc(Br)cc1F` [Example 3-33]: in data set [1], the “concentration of Aβ1-40 compared to control” value is reported as “decreased”.

`CC1=C(C(=O)OC(C)(C)C)C(c2ccc(Br)cc2F)C(C(=O)OC(C)(C)C)=C(C)N1` [Example 3-34, Di-tert-butyl 4-(4-bromo-2-fluorophenyl)-1,4-dihydro-2,6-dimethylpyridine-3,5-dicarboxylate]: in data set [1], the “concentration of Aβ1-40 compared to control” value is given as “decreased”.

`COCCOC(=O)C1=C(C)NC(C)=C(C(=O)OCCOC)C1c1cccc(Br)c1` [Example 3-37]: the “concentration of Aβ1-40 compared to control” value in data set [1] is reported as “decreased”.

For the compound `COCCOC(=O)C1=C(C)NC(C)=C(C(=O)OCCOC)C1c1ccc(Br)cc1` [Example 3-38, Bis(2-methoxyethyl) 4-(4-bromophenyl)-1,4-dihydro-2,6-dimethylpyridine-3,5-dicarboxylate], in data set [1], the “concentration of Aβ1-40 compared to control” value is “decreased”.

`CCOC(=O)C1=C(C)NC(C)=C(C(=O)OCC)C1c1cc(Br)ccc1F` [Example 3-41, Diethyl 4-(5-bromo-2-fluorophenyl)-1,4-dihydro-2,6-dimethylpyridine-3,5-dicarboxylate]: the “concentration of Aβ1-40 compared to control” value in data set [1] is on record as “decreased”.

In the case of `CC1=C(C(=O)OC(C)(C)C)C(c2cc(Br)ccc2F)C(C(=O)OC(C)(C)C)=C(C)N1` [Example 3-42], the “concentration of Aβ1-40 compared to control” value in data set [1] is “decreased”.

In the case of `COc1ccc(CCCOC(Cn2ccnc2)c2ccc(OC)cc2)cc1.Cl` (stereo not drawn) [SKF 96365, 1-[beta-[3-(4-methoxyphenyl)propoxy]-4-methoxyphenethyl]-1H-imidazole hydrochloride], the “concentration of Aβ1-40 compared to controls” value in data set [2] (15 μM, 24 hours (FIG. 1B)) is recorded as “significantly decreased”. Besides, in data set [2] (30 μM (FIG. 2)), the “concentration of Aβ1-40 compared to controls” value was “significantly decreased”, the “concentration of Aβ1-42 compared to controls” value is recorded as “significantly decreased” and the “concentration of total β-amyloid compared to controls” value is reported as “significantly decreased”. In addition, the “concentration of Aβ1-40 compared to controls” value in data set [2] (30 μM, 24 hours (FIG. 1B)) was “significantly decreased”.

Take `Clc1ccccc1C(c1ccccc1)(c1ccccc1)n1ccnc1` [clotrimazole]: in data set [2] (20 μM (FIG. 4)), the “concentration of Aβ1-40 compared to controls” value was “significantly decreased” and the “concentration of total β-amyloid compared to controls” value is given as “significantly decreased”.

For `CC(C)Cc1ccc(C(C)C(=O)O)cc1` (centres unmarked) [ibuprofen], in data set [3], the “β-amyloid deposits, astrocytosis, and dystrophic neurites” value is given as “reduction”.

For the compound `CN(C)C(=O)C(CCN1CCC(O)(c2ccc(Cl)cc2)CC1)(c1ccccc1)c1ccccc1` [loperamide], in data set [2] (30 μM (FIG. 4)), the “concentration of Aβ1-40 compared to controls” value is on record as “significantly decreased”, the “concentration of Aβ1-42 compared to controls” value is “significantly decreased” and the “concentration of total β-amyloid compared to controls” value is reported as “significantly decreased”.

On to `COC(=O)C1=C(C#N)NC(C)=C(C(=O)OC(C)C)C1c1cccc([N+](=O)[O-])c1` (centres unmarked) [nilvadipine], for which the “concentration of Aβ1-40 compared to controls” value is on record as “significantly decreased” in data set [2] (30 μM (FIG. 3)); “significantly decreased” in data set [2] (30 μM, 24 hours (FIG. 1B)); “significantly decreased” in data set [2] (setting [4]); “significantly decreased” in data set [2] (setting [5]). The “concentration of total β-amyloid compared to controls” value in data set [2] (30 μM (FIG. 3)) is recorded as “significantly decreased”.

Turning to `CCOC(=O)C1=C(C)NC(C)=C(C(=O)OC)C1c1cccc([N+](=O)[O-])c1` (centres unmarked) [nitrendipine], the “concentration of Aβ1-40 compared to controls” value in data set [2] (30 μM (FIG. 3)), in data set [2] (setting [4]) and in data set [2] (setting [5]) was “significantly decreased” each time. The “concentration of total β-amyloid compared to controls” value in data set [2] (30 μM (FIG. 3)) is reported as “significantly decreased”.

`COc1ccc2cc1Oc1ccc(cc1)C[C@H]1c3cc(c(OC)cc3CCN1C)Oc1c(OC)c(OC)cc3c1[C@H](C2)N(C)CC3` [tetrandine, tetrandrine]: the “concentration of Aβ1-40 compared to controls” value in data set [2] (5 μM (FIG. 4)), in data set [2] (10 μM (FIG. 4)), in data set [2] (20 μM (FIG. 4)) and in data set [2] (30 μM (FIG. 4)) was “significantly decreased” in each case. Moreover, the “concentration of total β-amyloid compared to controls” value in data set [2] (5 μM (FIG. 4)), in data set [2] (10 μM (FIG. 4)), in data set [2] (20 μM (FIG. 4)) and in data set [2] (30 μM (FIG. 4)) was “significantly decreased” throughout.

Regarding `CC(C)(C)c1cc(C=C(C#N)C#N)cc(C(C)(C)C)c1O` [tyrphostin A9], in data set [2] (20 μM (FIG. 2)), the “concentration of Aβ1-40 compared to controls” value was “significantly decreased”, the “concentration of Aβ1-42 compared to controls” value was “significantly decreased” and the “concentration of total β-amyloid compared to controls” value is on record as “significantly decreased”.
